From ChEMBL document CHEMBL3045512, “Synthesis of some novel triazoloquinazolines and triazinoquinazolines and their evaluation for anti-inflammatory activity” (Med Chem Res, 2012)

Legend:
Mus musculus [1] = test: Toxicity in Mus musculus albino (mouse) assessed as serum TBARS level at 300 mg/kg, po for 10 days (reference value: 4.35 +/- 0.86 U/l); assay type: organism-based; parameters: dose 300 mg/kg, route oral; settings: in vivo, 240 h
Mus musculus [2] = test: Toxicity in Mus musculus albino (mouse) assessed as serum SGOT level at 300 mg/kg, po for 10 days (reference value: 9.74 +/- 1.73 U/l); assay type: organism-based; parameters: dose 300 mg/kg, route oral; settings: in vivo, 240 h
Mus musculus [3] = test: Toxicity in Mus musculus albino (mouse) assessed as serum LDH level at 300 mg/kg, po for 10 days (reference value: 217.84 +/- 13.36 U/l); assay type: organism-based; parameters: dose 300 mg/kg, route oral; settings: in vivo, 240 h
Mus musculus [4] = test: Toxicity in Mus musculus albino (mouse) assessed as bluish toe at 70 to 410 mg/kg, ip; assay type: organism-based; parameters: dose 70-410 mg/kg, route intraperitoneal; settings: in vivo
Mus musculus [5] = test: Toxicity in Mus musculus albino (mouse) assessed as serum SGPT level at 300 mg/kg, po for 10 days (reference value: 35.82 +/- 5.26 U/l); assay type: organism-based; parameters: dose 300 mg/kg, route oral; settings: in vivo, 240 h
Mus musculus [6] = test: Toxicity in Mus musculus albino (mouse) assessed as SOD activity per gram of Hb at 300 mg/kg, po for 10 days (reference value: 12.7+/- 2.08 U/g Hb); assay type: organism-based; parameters: dose 300 mg/kg, route oral; settings: in vivo, 240 h
Mus musculus [7] = test: Toxicity in Mus musculus albino (mouse) assessed as GPx activity per gram of Hb at 300 mg/kg, po for 10 days (Rvb =179.16 +/- 10.45 U/g Hb); assay type: organism-based; parameters: dose 300 mg/kg, route oral; settings: in vivo, 240 h
Mus musculus [8] = test: Toxicity in Mus musculus albino (mouse) assessed as bluish skin at 70 to 410 mg/kg, ip; assay type: organism-based; parameters: dose 70-410 mg/kg, route intraperitoneal; settings: in vivo
Mus musculus [9] = test: Toxicity in Mus musculus albino (mouse) assessed as general depression at 70 to 410 mg/kg, ip; assay type: organism-based; parameters: dose 70-410 mg/kg, route intraperitoneal; settings: in vivo
Mus musculus [10] = test: Toxicity in Mus musculus albino (mouse) assessed as tremor inhind limbs at 70 to 410 mg/kg, ip; assay type: organism-based, Limb; parameters: dose 70-410 mg/kg, route intraperitoneal; settings: in vivo
Mus musculus [11] = test: Toxicity in Mus musculus albino (mouse) assessed as drop in temperature at extremeties at 70 to 410 mg/kg, ip; assay type: organism-based; parameters: dose 70-410 mg/kg, route intraperitoneal; settings: in vivo
Mus musculus [12] = test: Toxicity in Mus musculus albino (mouse) assessed as serum gamma-glutamyl transferase level at 300 mg/kg, po for 10 days (reference value: 4.43 +/- 0.31 U/l); assay type: organism-based; parameters: dose 300 mg/kg, route oral; settings: in vivo, 240 h
Mus musculus [13] = test: Toxicity in Mus musculus albino (mouse) assessed as brownish eye mucus at 70 to 410 mg/kg, ip; assay type: organism-based; parameters: dose 70-410 mg/kg, route intraperitoneal; settings: in vivo
Mus musculus [14] = test: Toxicity in Mus musculus albino (mouse) assessed as GSH activity at 300 mg/kg, po for 10 days (reference value: 59.57 +/- 5.10 %); assay type: organism-based; parameters: dose 300 mg/kg, route oral; settings: in vivo, 240 h
Mus musculus [15] = test: Anti-inflammatory activity in Mus musculus albino (mouse) assessed as inhibition of formalin-induced paw swelling at 30 mg/kg, po administered 30 min prior formalin challenge measured after 30 min post challenge (reference value: 9.46 +/- 0.035 mm/min); assay type: functional
Mus musculus [16] = test: Anti-inflammatory activity in Mus musculus albino (mouse) assessed as inhibition of formalin-induced paw swelling at 30 mg/kg, po administered 30 min prior formalin challenge measured after 60 min post challenge (reference value: 9.73 +/- 0.06 mm/min); assay type: functional
Mus musculus [17] = test: Toxicity in Mus musculus albino (mouse) assessed as drop in temperature at extremeties at 80 to 375 mg/kg, ip; assay type: organism-based; parameters: dose 80-375 mg/kg, route intraperitoneal; settings: in vivo
Mus musculus [18] = test: Toxicity in Mus musculus albino (mouse) assessed as rapid respiration at 70 to 410 mg/kg, ip; assay type: organism-based; parameters: dose 70-410 mg/kg, route intraperitoneal; settings: in vivo
Mus musculus [19] = test: Toxicity in Mus musculus albino (mouse) assessed as serum ALP level at 300 mg/kg, po for 10 days (reference value: 31.63 +/- 3.73 U/l); assay type: organism-based; parameters: dose 300 mg/kg, route oral; settings: in vivo, 240 h
Mus musculus [20] = test: Toxicity in Mus musculus albino (mouse) assessed as increase in heart rate at 70 to 410 mg/kg, ip; assay type: organism-based; parameters: dose 70-410 mg/kg, route intraperitoneal; settings: in vivo
Mus musculus [21] = test: Anti-inflammatory activity in Mus musculus albino (mouse) assessed as inhibition of formalin-induced paw swelling at 30 mg/kg, po administered 30 min prior formalin challenge measured after 120 min post challenge (reference value: 9.83 +/- 0.071 mm/min); assay type: functional
Mus musculus [22] = test: Anti-inflammatory activity in Mus musculus albino (mouse) assessed as inhibition of formalin-induced paw swelling at 30 mg/kg, po administered 30 min prior formalin challenge measured after 90 min post challenge (reference value: 9.5 +/- 0.04 mm/min); assay type: functional
Mus musculus [23] = test: Toxicity in ip dosed Mus musculus albino (mouse) assessed as mortality measured per gram body weight; assay type: organism-based; settings: in vivo
Mus musculus [24] = test: Toxicity in Mus musculus albino (mouse) assessed as general depression at 90 to 340 mg/kg, ip; assay type: organism-based; parameters: dose 90-340 mg/kg, route intraperitoneal; settings: in vivo
Mus musculus [25] = test: Toxicity in Mus musculus albino (mouse) assessed as drop in temperature at extremeties at 90 to 340 mg/kg, ip; assay type: organism-based; parameters: dose 90-340 mg/kg, route intraperitoneal; settings: in vivo
Mus musculus [26] = test: Toxicity in Mus musculus albino (mouse) assessed as rapid respiration at 90 to 340 mg/kg, ip; assay type: organism-based; parameters: dose 90-340 mg/kg, route intraperitoneal; settings: in vivo
Mus musculus [27] = test: Toxicity in Mus musculus albino (mouse) assessed as bluish skin at 90 to 340 mg/kg, ip; assay type: organism-based; parameters: dose 90-340 mg/kg, route intraperitoneal; settings: in vivo
Mus musculus [28] = test: Toxicity in Mus musculus albino (mouse) assessed as bluish toe at 90 to 340 mg/kg, ip; assay type: organism-based; parameters: dose 90-340 mg/kg, route intraperitoneal; settings: in vivo
Mus musculus [29] = test: Toxicity in Mus musculus albino (mouse) assessed as tremor inhind limbs at 90 to 340 mg/kg, ip; assay type: organism-based, Limb; parameters: dose 90-340 mg/kg, route intraperitoneal; settings: in vivo
Mus musculus [30] = test: Toxicity in Mus musculus albino (mouse) assessed as brownish eye mucus at 90 to 340 mg/kg, ip; assay type: organism-based; parameters: dose 90-340 mg/kg, route intraperitoneal; settings: in vivo
Mus musculus [31] = test: Toxicity in Mus musculus albino (mouse) assessed as increase in heart rate at 90 to 340 mg/kg, ip; assay type: organism-based; parameters: dose 90-340 mg/kg, route intraperitoneal; settings: in vivo

Structure (SMILES)	Activity (Mus musculus [1]) [nmol/mL]	Activity (Mus musculus [2]) [U/L]	Activity (Mus musculus [3]) [U/L]	Activity (Mus musculus [5]) [U/L]	Activity (Mus musculus [6]) [U/g Hb]	Activity (Mus musculus [7]) [U/g Hb]	Activity (Mus musculus [12]) [U/L]	Activity (Mus musculus [14]) [%]	Activity (Mus musculus [15]) [millimeter/min]	Activity (Mus musculus [16]) [millimeter/min]	Activity (Mus musculus [19]) [U/L]	Activity (Mus musculus [21]) [millimeter/min]	Activity (Mus musculus [22]) [millimeter/min]	Activity (Mus musculus [23]) [millimeter/min]	other results
CC(=O)NS(=O)(=O)c1ccc(-n2c(-c3ccccc3O)nn3c(=O)c4ccccc4nc23)cc1	4.11	11.1	211.27	28.44	12.4	180	4.36	60.12	6.43	6.11	33.26	6.02	6.83	213.25	Activity (Mus musculus [4]): Toxic; Activity (Mus musculus [8]): Toxic; Activity (Mus musculus [9]): Toxic; Activity (Mus musculus [10]): Toxic; Activity (Mus musculus [11]): Toxic; Activity (Mus musculus [13]): Toxic; Activity (Mus musculus [17]): Toxic; Activity (Mus musculus [18]): Toxic; Activity (Mus musculus [20]): Toxic
CCOC(=O)c1nn2c(=O)c3ccccc3nc2n1-c1ccc(S(=O)(=O)NC(C)=O)cc1	4.02	10.66	215.78	31.24	14	177	4.51	58.63	6.37	6.17	28.95	5.95	6	235	Activity (Mus musculus [24]): Toxic; Activity (Mus musculus [25]): Toxic; Activity (Mus musculus [26]): Toxic; Activity (Mus musculus [27]): Toxic; Activity (Mus musculus [28]): Toxic; Activity (Mus musculus [29]): Toxic; Activity (Mus musculus [30]): Toxic; Activity (Mus musculus [31]): Toxic
